Experimental data from US11993587B2, “Substituted pyrazolo-pyrazines and their use as GluN2B receptor modulators” (JANSSEN PHARMACEUTICA NV, priority 2019, dated 2024).

Columns and labels:
[1] = target: T1, human GluN1/GluN2B NMDA receptors (Homo sapiens, UniProt Q13224); test: Cell-based calcium flux (FLIPR) assay on cloned human NR1/NR2B ion channels expressed in mammalian cells; conditions: standard assay, glutamate ~EC40 plus 10 μM glycine, cells expressing human GluN1/GluN2B
T1 construct: expressed in transfected cells
Method: Effects of Test Articles on Cloned Human NR1/NR2B Ion Channels Expressed in Mammalian Cells
NMDA receptors are ion channels that are highly permeable to Ca^2+ ions, rendering it possible to monitor NMDA receptor function using cell-based calcium flux assay. In this assay, co-agonists glutamate and glycine are added to cells heterologously expressing human GluN1/GluN2B NMDA receptors to initiate cellular Ca^2+ influx. The time course of the changes in intracellular calcium is measured using a fluorescent dye and a FLIPR (Fluorometric Imaging Plate Reader) device.
Twenty four hours before measurements, the expression of the NMDA receptors in the stable cell line is induced with Tet-On inducible system in the presence of a non-selective NMDA receptor blocker. […] After 1 h incubation at the room temperature, the dye is washed away with the assay buffer (137 mM NaCl (standard assay) or 150 mM (HTS assay), 4 mM KCl (standard assay) or 3 mM (HTS assay), 2 mM CaCl2), 0.01 mM EDTA, 10 mM HEPES and 5 mM D-glucose; pH 7.4) In the FLIPR TETRA reader, various concentrations of the test compounds are added to the cells for 5 min while fluorescence is monitored to detect potential agonist activity. […] The fluorescent signal in the presence of test compounds is quantified and normalized to the signal defined by the appropriate control wells.

[2] = Liver microsomal stability (extraction ratio); assay type: in vitro ADME; conditions: test compound 1 μM, 0.5 mg/mL liver microsomes, NADPH, 37° C.; species not stated (method: mouse, rat, and human)
Method: Protocol for Liver Microsomal Stability (Extraction Ratio)
Liver Microsomal Stability. Microsomal stability studies (Chrovian et al, “1H-Pyrrolo[3,2-b]pyridine GluN2B-Selective Negative Allosteric Modulators”. ACS Med Chem Lett. 2019 Jan. 10; 10(3):261-266) were conducted on a Biomek® FX Robotic Liquid Handling Workstation (Beckman Coulter, Brea, CA), which consists of a 96-channel pipette head, a 12-position workstation deck, and a plate incubator. Test compounds (1 μM) were spiked in a reaction mix consisting of 100 mM potassium phosphate buffer (pH 7.4), 3 mM MgCl2, and 0.5 mg/mL liver microsomes from mouse, rat, and human (BD Gentest). The reaction was brought to 37° C. and initiated by adding NADPH to a final concentration of 1 mM. After mixing on the plate deck, 50 μL aliquots were excised from the reaction plate at 0, 5, 10, 20, 40, and 60 min and quenched with four volumes of acetonitrile spiked with […] of the internal standard phenytoin. Quenched plates were centrifuged at 5700 rpm for 10 min at 4° C., and supernatant was diluted 1:3 in water before LC/MS/MS analysis. The compound half-lives were derived from plots of the ln of percent remaining compound over time to determine the intrinsic clearance. The predicted hepatic clearance was derived from the intrinsic clearance value using equations from the well-stirred model (Current Drug Metabolism, 2008, 9, 940-951), where no correction was made plasma protein binding and the blood to plasma concentration ratio was assumed to be one. The extraction ratio (ER) was calculated by dividing the predicted hepatic clearance by species blood flow (Q), where Q is 90, 55, and 21.7 mL/min/kg for mouse, rat and human, respectively

T1 sequence (Q13224 27-1484, other chains not shown): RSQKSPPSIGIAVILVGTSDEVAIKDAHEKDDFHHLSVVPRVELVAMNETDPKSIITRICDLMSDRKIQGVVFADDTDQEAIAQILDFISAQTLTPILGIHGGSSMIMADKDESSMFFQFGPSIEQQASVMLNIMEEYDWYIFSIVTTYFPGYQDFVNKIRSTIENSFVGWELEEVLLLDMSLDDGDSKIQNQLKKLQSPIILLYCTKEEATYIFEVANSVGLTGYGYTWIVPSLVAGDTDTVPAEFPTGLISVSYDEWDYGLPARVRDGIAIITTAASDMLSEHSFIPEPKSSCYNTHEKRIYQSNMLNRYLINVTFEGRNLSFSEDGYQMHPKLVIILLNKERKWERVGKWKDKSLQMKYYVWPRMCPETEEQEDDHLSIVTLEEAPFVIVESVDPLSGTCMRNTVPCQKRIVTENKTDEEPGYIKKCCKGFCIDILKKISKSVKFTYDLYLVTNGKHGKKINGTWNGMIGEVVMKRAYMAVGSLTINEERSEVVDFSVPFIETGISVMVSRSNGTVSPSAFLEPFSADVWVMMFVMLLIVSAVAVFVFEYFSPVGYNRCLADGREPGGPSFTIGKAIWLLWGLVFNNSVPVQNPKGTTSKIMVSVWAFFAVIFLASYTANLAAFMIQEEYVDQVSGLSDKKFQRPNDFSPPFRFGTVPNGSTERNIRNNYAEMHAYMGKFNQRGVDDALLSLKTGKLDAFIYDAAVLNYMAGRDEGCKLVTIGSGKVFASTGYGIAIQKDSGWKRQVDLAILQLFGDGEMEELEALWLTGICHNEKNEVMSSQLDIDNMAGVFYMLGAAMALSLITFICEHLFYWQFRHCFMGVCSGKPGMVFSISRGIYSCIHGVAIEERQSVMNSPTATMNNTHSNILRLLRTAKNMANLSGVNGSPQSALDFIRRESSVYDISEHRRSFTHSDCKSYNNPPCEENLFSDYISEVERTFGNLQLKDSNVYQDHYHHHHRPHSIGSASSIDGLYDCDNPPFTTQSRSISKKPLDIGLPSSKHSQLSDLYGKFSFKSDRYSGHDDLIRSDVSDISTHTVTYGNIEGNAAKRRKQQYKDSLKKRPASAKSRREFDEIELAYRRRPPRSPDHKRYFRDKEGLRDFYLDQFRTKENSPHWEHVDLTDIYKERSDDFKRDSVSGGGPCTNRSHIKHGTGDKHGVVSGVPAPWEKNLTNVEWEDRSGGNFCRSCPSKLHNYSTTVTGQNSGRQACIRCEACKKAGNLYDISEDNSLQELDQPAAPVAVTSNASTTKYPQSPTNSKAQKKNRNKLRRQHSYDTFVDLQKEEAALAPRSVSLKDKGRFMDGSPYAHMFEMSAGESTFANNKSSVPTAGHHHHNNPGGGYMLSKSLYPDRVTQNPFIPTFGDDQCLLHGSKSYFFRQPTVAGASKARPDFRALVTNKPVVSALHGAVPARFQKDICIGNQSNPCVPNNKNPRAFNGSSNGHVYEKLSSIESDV

Extraction Ratio @ 1 μM [2]	Molecule	IC50 [1] [nM]
–	2-[6-(4-Fluoro-3-methyl-phenyl)pyrazolo[3,4-b]pyrazin-1-yl]-N,N-dimethyl-acetamide [Example 7]	117
0.41	CN(C)C(=O)Cn1ncc2ncc(-c3ccc(F)c(C(F)F)c3)nc21 [Example 10, 2-[6-[3-(Difluoromethyl)-4-fluoro-phenyl]pyrazolo[3,4-b]pyrazin-1-yl]-N,N-dimethyl-acetamide]	–
0.54	CN(C)C(=O)Cn1ncc2ncc(-c3ccc(Cl)c(C(F)F)c3)nc21 [Example 12, 2-[6-[4-Chloro-3-(difluoromethyl)phenyl]pyrazolo[3,4-b]pyrazin-1-yl]-N,N-dimethyl-acetamide]	–
0.41	O=C(Cn1nc(F)c2ncc(-c3ccc(F)c(C(F)F)c3)nc21)N1CCC1 [Example 25, 1-(Azetidin-1-yl)-2-[6-[3-(difluoromethyl)-4-fluoro-phenyl]-3-fluoro-pyrazolo[3,4-b]pyrazin-1-yl]ethanone]	–
0.45	O=C(Cn1ncc2ncc(-c3ccc(F)c(OC(F)F)c3)nc21)N1CCC1 [Example 28, 1-(Azetidin-1-yl)-2-[6-[3-(difluoromethoxy)-4-fluoro-phenyl]pyrazolo[3,4-b]pyrazin-1-yl]ethanone]	–
0.46	O=C(Cn1ncc2ncc(-c3ccc(F)c(OC(F)F)c3)nc21)N1CC(F)C1 [Example 37, 2-[6-[3-(Difluoromethoxy)-4-fluoro-phenyl]pyrazolo[3,4-b]pyrazin-1-yl]-1-(3-fluoroazetidin-1-yl)ethanone]	–
